From ChEMBL document CHEMBL1201862, “PubChem BioAssay data set” (2004)
Values joined by “and” are separate entries in the source; they are usually repeats but may differ in a detail not shown here. Identical values can stand only once.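 Step 1: Grow cells in 96-well plates. Step 2: Expose to compound for 48 hours at 5 concentrations. Step 3: Interpolate endpoints linearly; if unreached, use highest concentration. At the GI50, growth is halved.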 Active and inactive are the calls of the source. Cut-off read from the data, not from the text of the source: active = GI50 up to about 1.1 µM and inactive = higher.

Legend:
Assay in all cases: NCI-60 cell line screen, 48 h
[1] = system: HOP-62
[2] = system: SR
[3] = system: MDA-MB-435
[4] = system: HCT-116
[5] = system: UO-31
[6] = system: K562
[7] = system: SN12C
[8] = system: SF-268
[9] = system: A549
[10] = system: ACHN
[11] = system: COLO 205
[12] = system: SF-295
[13] = system: NCI-H23
[14] = system: HL-60
[15] = system: SK-MEL-28
[16] = system: KM12
[17] = system: M14
[18] = system: IGROV-1
[19] = system: OVCAR-4
[20] = system: OVCAR-5

| Compound | GI50 [1] | GI50 [2] | GI50 [3] | GI50 [4] | GI50 [5] | GI50 [6] | GI50 [7] | GI50 [8] | GI50 [9] | GI50 [10] | GI50 [11] | GI50 [12] | GI50 [13] | GI50 [14] | GI50 [15] | GI50 [16] | GI50 [17] | GI50 [18] | GI50 [19] | GI50 [20] |
| --- | --- | --- | --- | --- | --- | --- | --- | --- | --- | --- | --- | --- | --- | --- | --- | --- | --- | --- | --- | --- |
| CC(=O)Oc1ccc(/C=C/C(=O)OCCCOC(=O)/C=C/c2ccc(OC(C)=O)c(OC(C)=O)c2)cc1OC(C)=O | 51.2 µM (inactive) | > 100 µM (inactive) | > 100 µM (inactive) | 58.1 µM (inactive) | > 100 µM (inactive) | > 100 µM (inactive) | > 100 µM (inactive) | > 100 µM (inactive) | > 100 µM (inactive) | > 100 µM (inactive) | > 100 µM (inactive) | 77.4 µM (inactive) | > 100 µM (inactive) | < 0.01 µM (active) | > 100 µM (inactive) | > 100 µM (inactive) | > 100 µM (inactive) | > 100 µM (inactive) | > 100 µM (inactive) | > 100 µM (inactive) |
| CCOC(=O)c1cnc2[nH]ccn2c1=O | > 10 µM (inactive) | > 10 µM (inactive) | > 10 µM (inactive) | > 10 µM (inactive) | > 10 µM (inactive) | > 10 µM (inactive) | > 10 µM (inactive) | > 10 µM (inactive) | > 10 µM (inactive) | > 10 µM (inactive) | > 10 µM (inactive) | > 10 µM (inactive) | > 10 µM (inactive) | > 10 µM (inactive) | > 10 µM (inactive) | > 10 µM (inactive) | > 10 µM (inactive) | > 10 µM (inactive) | > 10 µM (inactive) | > 10 µM (inactive) |
| S=C(Nc1ccccn1)Nc1ccccc1Cl | 52 µM (inactive) | 73.6 µM (inactive) | 69.5 µM (inactive) | > 71.9 µM (inactive) | > 100 µM (inactive) | > 100 µM (inactive) | > 100 µM (inactive) | > 43.8 µM (inactive) | 50.8 µM (inactive) | 32.2 µM (inactive) | > 100 µM (inactive) | > 64.9 µM (inactive) | 49.9 µM (inactive) | > 80.7 µM (inactive) | > 100 µM (inactive) | > 44.4 µM (inactive) | > 100 µM (inactive) | > 36.1 µM (inactive) | > 61.7 µM (inactive) | > 50.2 µM (inactive) |
| CC(C)C1C(=O)N2CCCC2C2(O)OC(NC(=O)C3C=C4c5cccc6[nH]cc(c56)CC4N(C)C3)(C(C)C)C(=O)N12 (centres undefined) | 23.4 µM (inactive) | 32.4 µM (inactive) | 29.2 µM (inactive) | 17.9 µM (inactive) | 13.5 µM (inactive) |  | 35.4 µM (inactive) | 41.1 µM (inactive) | 20.7 µM (inactive) | 18.9 µM (inactive) | 20.7 µM (inactive) | 28.2 µM (inactive) | 26.9 µM (inactive) | 27 µM (inactive) | 25.5 µM (inactive) | 20.7 µM (inactive) | 23.8 µM (inactive) | 14.9 µM (inactive) | 18.3 µM (inactive) | 13.2 µM (inactive) |
| CCOC(=O)/C(C)=C\[C@@]1(C)O[C@@H](C)[C@@](C)(OC(C)=O)[C@@H]1OC(C)=O | 70.6 µM (inactive) | 58.3 µM (inactive) | 41.7 µM (inactive) | 40.9 µM (inactive) |  | 38.6 µM (inactive) | 57.1 µM (inactive) | 39.3 µM (inactive) | 45.4 µM (inactive) | 41 µM (inactive) | 30 µM (inactive) | 36.8 µM (inactive) | 21.5 µM (inactive) | 39.6 µM (inactive) | > 100 µM (inactive) | 45.2 µM (inactive) | 61.5 µM (inactive) | 37.7 µM (inactive) | 33.4 µM (inactive) | > 100 µM (inactive) |
| COC(CNC(=O)C(C)NC(=O)CCc1ccccc1)OC (centres undefined) |  | > 100 µM (inactive) | > 100 µM (inactive) | > 100 µM (inactive) | > 100 µM (inactive) | > 100 µM (inactive) | > 100 µM (inactive) | > 100 µM (inactive) | > 100 µM (inactive) | > 100 µM (inactive) | > 100 µM (inactive) | > 100 µM (inactive) | > 100 µM (inactive) | > 100 µM (inactive) | > 100 µM (inactive) | > 100 µM (inactive) | > 100 µM (inactive) | > 100 µM (inactive) | > 100 µM (inactive) | > 100 µM (inactive) |
| O=c1c(/C=C/c2c(O)ccc3ccccc23)nnc2sc(-c3cccc([N+](=O)[O-])c3)nn12 | 18.2 µM (inactive) | 4.38 µM (inactive) | 17.1 µM (inactive) | 4.98 µM (inactive) | 9.93 µM (inactive) | 25.6 µM (inactive) | 9.33 µM (inactive) | 8.93 µM (inactive) |  | 5.12 µM (inactive) | 26.5 µM (inactive) | 26.8 µM (inactive) | 19.1 µM (inactive) | 2.62 µM (inactive) | > 100 µM (inactive) | 22.1 µM (inactive) | 10.8 µM (inactive) | 15.3 µM (inactive) | 6.98 µM (inactive) | 33 µM (inactive) |
| N#CCCN(CCC#N)c1ccc(/C=N\c2ccc(F)cc2)cc1 | 27.1 µM (inactive) | 58.9 µM (inactive) | 17.3 µM (inactive) | 6.97 µM (inactive) | 41.8 µM (inactive) | 0.137 µM (active) | > 75 µM (inactive) | 35.2 µM (inactive) | 43.1 µM (inactive) | 3.16 µM (inactive) | 14 µM (inactive) | 12.3 µM (inactive) | > 100 µM (inactive) | 6.46 µM (inactive) | > 48.5 µM (inactive) |  | 1.62 µM (inactive) | 45.6 µM (inactive) | > 49.1 µM (inactive) |  |
| CC(=O)NC(CSC1=C2NC(=O)\C=C/C=C\C=C/C(C)C(O)CC(=O)/C(C)=C\CC(O)/C=C\C(C)C(O)C(C)C=C(C)C(=O)c3c(O)c(C)cc(c3C1=O)C2=O)C(=O)O (centres undefined) | 74 µM (inactive) | 33.5 µM (inactive) | > 100 µM (inactive) | 36.4 µM (inactive) | > 100 µM (inactive) | 39.1 µM (inactive) | 79.1 µM (inactive) |  | > 100 µM (inactive) | 66.4 µM (inactive) | 21.7 µM (inactive) | > 100 µM (inactive) | > 100 µM (inactive) | 23.6 µM (inactive) | 30.3 µM (inactive) | 33.7 µM (inactive) | > 100 µM (inactive) | 43.1 µM (inactive) | > 100 µM (inactive) | > 100 µM (inactive) |
| CC(=O)CCC(=O)C(=[N+]=[N-])S(=O)(=O)c1ccccc1 | > 100 µM (inactive) | > 100 µM (inactive) | > 100 µM (inactive) | > 100 µM (inactive) | > 100 µM (inactive) | > 100 µM (inactive) | > 100 µM (inactive) | > 100 µM (inactive) | > 100 µM (inactive) | > 100 µM (inactive) | > 100 µM (inactive) | > 100 µM (inactive) | > 100 µM (inactive) | > 100 µM (inactive) | > 100 µM (inactive) | > 100 µM (inactive) | > 100 µM (inactive) | > 100 µM (inactive) |  | > 100 µM (inactive) |
| CCNC(=O)CCC(C)[C@H]1CCC2C3C(C[C@H](OC(C)=O)[C@@]21C)[C@@]1(C)CCC2(C[C@H]1C[C@H]3OC(C)=O)OOC1(CCC(C)CC1)OO2 (some centres undefined) | 689 nM (active) and 1.31 µM (inactive) | 1.17 µM (inactive) and 1.03 µM (active) | 1.79 µM (inactive) and 1.72 µM (inactive) | 1.94 µM (inactive) and 1.79 µM (inactive) | 1.02 µM (active) and 1.35 µM (inactive) | 3.8 µM (inactive) | 2.52 µM (inactive) and 1.83 µM (inactive) |  | 1.5 µM (inactive) and 1.49 µM (inactive) | 1.55 µM (inactive) and 1.63 µM (inactive) | 1.53 µM (inactive) and 1.65 µM (inactive) | 3.82 µM (inactive) and 2 µM (inactive) | 2.13 µM (inactive) and 2.2 µM (inactive) | 1.49 µM (inactive) and 1.97 µM (inactive) | 2.9 µM (inactive) and 3.47 µM (inactive) | 1.64 µM (inactive) and 1.57 µM (inactive) | 2.73 µM (inactive) and 2.14 µM (inactive) | 1.35 µM (inactive) and 1.41 µM (inactive) | 1.24 µM (inactive) and 1.58 µM (inactive) | 2.7 µM (inactive) and 1.82 µM (inactive) |
| COC(=O)c1ccccc1/C=C1/Cc2cccc(C)c2C1=O | 31 µM (inactive) | > 100 µM (inactive) | > 100 µM (inactive) | > 100 µM (inactive) | > 100 µM (inactive) | > 100 µM (inactive) | > 100 µM (inactive) | 73.1 µM (inactive) | > 100 µM (inactive) | 57.5 µM (inactive) | > 100 µM (inactive) | 42 µM (inactive) | > 100 µM (inactive) | > 100 µM (inactive) | > 100 µM (inactive) | > 100 µM (inactive) |  | > 100 µM (inactive) | > 100 µM (inactive) | > 100 µM (inactive) |
| COc1ccc(C2=Nn3c(nc4sc5c(c4c3=O)CCCC5)SC2)cc1 | 49.8 µM (inactive) | > 100 µM (inactive) | > 100 µM (inactive) | > 100 µM (inactive) | > 100 µM (inactive) | > 100 µM (inactive) | > 100 µM (inactive) | > 100 µM (inactive) | > 100 µM (inactive) | > 100 µM (inactive) | > 100 µM (inactive) | > 100 µM (inactive) | > 100 µM (inactive) | > 100 µM (inactive) | > 100 µM (inactive) | > 100 µM (inactive) |  | > 100 µM (inactive) | > 100 µM (inactive) | > 100 µM (inactive) |
